We go through four compounds from US20060052432A1, “Pharmaceutical compositions with improved dissolution” (priority 2002, published 2006).

Where a name gives a salt, the structure may show the parent alone.

A short description of series [1]: In vitro dissolution studies in simulated gastric fluid. In kind it is physicochemical. The method, then:
1. […] The celecoxib salt was ground using mortar and pestle until fine powder was formed. […] 2. Formulation Preparation • a. Fresh PLURONIC excipient was dispensed into a mortar. If initially a solid at room temperature, the PLURONIC was ground until a smooth powder was formed. • b. If HPC was to be added, it was dispensed after the PLURONIC excipient. […] 3. Dissolution Assay • a. A water bath was set up at 37 degrees C. • b. Simulated gastric fluid in the fasted state (SGF) was prepared at pH 1.7 and diluted five times with deionized water. […] The simulated gastric fluid was diluted five times to simulate the effect of drinking a glass of water with the medication. The SGF was pre-heated to 37 degrees C. • c. The formulation was placed in a 20 mL scintillation vial. • d. A 10 mm x 3 mm stir bar was added. • e. Diluted SGF was added to the formulation. […] The vial was placed in the water bath and allowed to stir. • g. […] The first ⅔ of filtrate was discarded as waste and the last ⅓ was collected into an eppendorf tube. 0.1 mL of the collected filtrate was immediately transferred to an autosampler vial and diluted ten times with 0.9 mL of methanol. The autosampler vials were crimp sealed and submitted for content analysis using high performance liquid chromatography with ultraviolet detection. In Vitro Dissolution Studies of PLURONIC Excipients - Results: […]

Series [2] in a line: pKa. In kind it is physicochemical.
The conditions of series [3]: commercially available neutral form; cited from earlier work.
Series [4] in a line: Pharmacokinetic studies in rats, 5 mg/kg oral doses. In kind it is in vivo, male Sprague-Dawley rats. Conditions: gelatin capsule, sodium salt blended 1:4 with polyvinylpyrrolidone, compared with CELEBREX
The method, then: The sodium salt form (from Example 6) was compared with CELEBREX powder in terms of absorption in rats (FIGS. 4A and 4B).
Solids were placed in size 9 gelatin capsules (Torpac) and dosed via gavage needle, followed by oral gavage of 1 mL water. CELEBREX granulation was transferred from commercial 200 mg capsules. The sodium salt was blended with polyvinylpyrrolidone (e.g. PovidoneK30) in a 1:4 mixture. The plots are averages of plasma levels at each of the time points from plasma of 5 rats.

A short description of series [5]: Administration of celecoxib compositions to dogs (plasma pharmacokinetics). As to conditions: single oral dose, 5 mpk, male dogs.
Series [6] can be described thus: Solubility of celecoxib sodium salt in the presence of polyvinylpyrrolidone. In kind it is physicochemical. Conditions: added to aqueous PVP, or water added to dry blend with PVP.
A short description of series [7]: Solubility in water. In kind it is physicochemical.
The conditions of series [8]: according to WO 01/78724; cited from earlier work.

For `CCOCCOCCO` [Transcutol P], the “effect on dissolution of celecoxib free acid” value in series [1] is given as “does not enhance dissolution of the free acid”.

In series [2], `Cc1onc(-c2ccccc2)c1-c1ccc(S(N)(=O)=O)cc1` [Valdecoxib, 4-(5-methyl-3-phenyl-4-isoxazolyl)benzene sulfonamide] came in with a pKa of around 11. Also, the “solubility in water (in words)” value in series [3] is given as “essentially insoluble in water”.

`Cc1ccc(-c2cc(C(F)(F)F)nn2-c2ccc(S(N)(=O)=O)cc2)cc1` [celecoxib sodium salt, sodium salt of 4-[5-(4-methylphenyl)-3-(trifluoromethyl)-1H-pyrazol-1-yl]benzenesulfonamide]: the “peak level of the drug in plasma” value in series [4] is “faster peak level of the drug in plasma”. Besides, the “maximum blood serum concentration reached faster than for celecoxib” value in series [5] turned out to be 40%.

`Cc1ccc(-c2cc(C(F)(F)F)nn2-c2ccc(S(N)(=O)=O)cc2)cc1` [celecoxib, 4-[5-(4-methylphenyl)-3-(trifluoromethyl)-1H-pyrazol-1-yl]benzenesulfonamide]: in series [6], the “dissolution in aqueous polyvinylpyrrolidone” value is listed as “did not dissolve”. In addition, in series [7], the “ability to be maintained as a supersaturated solution” value was “cannot be maintained as a supersaturated solution for any appreciable time” and the solubility was below 1 µg/mL. For the same compound, in series [3], the “solubility in water (in words)” value is recorded as “essentially insoluble in water”. In series [8], the “solubility in Transcutol P” value is 350 mg/g.

The pKa is the pH at which an ionisable group is half protonated. Low readings indicate a group that gives up its proton readily, high ones a group that holds its proton tightly. As a reminder, the solubility is how much of the substance goes into solution per volume. A high value points to a readily soluble substance.
